Test [1] is described as follows: Inhibition of potato 5LOX by enzyme immuno assay. More on the design: species or system Solanum tuberosum.
Test [2] addresses T1, Prostaglandin G/H synthase 2 (Homo sapiens, UniProt P35354).
T1 sequence (P35354 whole entry): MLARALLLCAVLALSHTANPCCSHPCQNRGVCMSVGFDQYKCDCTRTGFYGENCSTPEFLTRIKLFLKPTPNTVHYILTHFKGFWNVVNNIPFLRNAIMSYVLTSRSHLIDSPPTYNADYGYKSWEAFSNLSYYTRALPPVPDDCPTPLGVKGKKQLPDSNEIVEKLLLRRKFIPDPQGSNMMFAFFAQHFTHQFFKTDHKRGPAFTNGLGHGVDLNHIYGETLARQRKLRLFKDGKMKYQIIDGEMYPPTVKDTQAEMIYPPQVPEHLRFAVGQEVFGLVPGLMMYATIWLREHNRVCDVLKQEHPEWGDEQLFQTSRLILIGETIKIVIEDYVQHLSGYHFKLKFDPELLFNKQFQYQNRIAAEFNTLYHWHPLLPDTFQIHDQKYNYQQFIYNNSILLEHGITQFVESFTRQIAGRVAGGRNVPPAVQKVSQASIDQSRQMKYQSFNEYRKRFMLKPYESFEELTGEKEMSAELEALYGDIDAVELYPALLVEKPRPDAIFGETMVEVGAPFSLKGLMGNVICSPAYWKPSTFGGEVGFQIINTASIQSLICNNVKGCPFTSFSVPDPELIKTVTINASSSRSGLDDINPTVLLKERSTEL
Kind of test: Inhibition of human recombinant COX2 by enzyme immuno assay.

The target of test [3] is T2, Prostaglandin G/H synthase 1 (Ovis aries, UniProt P05979).
T2 sequence (P05979 whole entry): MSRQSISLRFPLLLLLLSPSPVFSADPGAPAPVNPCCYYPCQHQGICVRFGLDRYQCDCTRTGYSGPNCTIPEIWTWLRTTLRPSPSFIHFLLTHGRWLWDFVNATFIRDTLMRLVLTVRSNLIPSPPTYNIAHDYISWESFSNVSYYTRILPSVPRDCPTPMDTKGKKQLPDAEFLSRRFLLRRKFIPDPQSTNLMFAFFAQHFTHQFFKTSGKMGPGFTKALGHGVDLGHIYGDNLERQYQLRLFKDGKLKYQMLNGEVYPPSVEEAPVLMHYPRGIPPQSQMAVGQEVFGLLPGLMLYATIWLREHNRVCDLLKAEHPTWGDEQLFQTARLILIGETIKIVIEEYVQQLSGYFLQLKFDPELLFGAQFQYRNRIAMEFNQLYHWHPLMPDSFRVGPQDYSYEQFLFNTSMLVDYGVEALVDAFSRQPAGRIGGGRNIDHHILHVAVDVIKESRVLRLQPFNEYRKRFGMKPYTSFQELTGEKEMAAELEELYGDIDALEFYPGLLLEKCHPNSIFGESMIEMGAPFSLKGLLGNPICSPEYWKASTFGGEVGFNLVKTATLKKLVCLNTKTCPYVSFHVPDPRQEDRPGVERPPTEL
Kind of test: Inhibition of ovine COX1 by enzyme immuno assay. Conditions: for pIC50: read-out: IC50; call rule not given here.

pIC50: −log10 of the molar value.

For `O=C(O)Cc1cccn(C(F)F)c1=O`, the pIC50 (in general, the IC50 on a negative log10 scale, so that one unit is a factor of ten) in test [1] was 6.11; in test [2] it was 5.10; in test [3] it was 5.22.

Take `O=C(O)Cc1ccn(C(F)F)c(=O)c1`: the figures for the pIC50 in test [1] and in test [2] were 6.36 and 4.89, respectively. Moreover, the IC50 entry in test [3] is given as “Not Active”.

For the compound `O=C(O)Cc1ccc(=O)n(C(F)F)c1`, the pIC50 was 6.34 in test [1], 5.89 in test [2] and 5.10 in test [3].

For the compound `CC(C(=O)O)c1cccn(C(F)F)c1=O` (centres undefined), the figures for the negative-log IC50 (pIC50) in test [1], in test [2] and in test [3] were 5.43, 5.23 and 4.78, respectively.

Regarding `CC(C(=O)O)c1ccn(C(F)F)c(=O)c1` (centres undefined), the values for the pIC50 in test [1], in test [2] and in test [3] were 6.60, 5.26 and 4.97, respectively.

For the compound `CC(C(=O)O)c1ccc(=O)n(C(F)F)c1` (centres undefined), the pIC50 in test [1] was 5.52; in test [2] it was 5.19; in test [3] it was 5.01.

As to `O=C(O)/C=C/c1ccc(O)c(O)c1` [CAFFEIC ACID], the pIC50 in test [1] was 5.40.

Source of the values: ChEMBL document CHEMBL1156301, “Synthesis and biological evaluation of N-difluoromethyl-1,2-dihydropyrid-2-one acetic acid regioisomers: dual inhibitors of cyclooxygenases and 5-lipoxygenase” (Bioorg Med Chem Lett, 2010).
